Test [1] deals with T1, β2-adrenoceptor (trachea) (Cavia porcellus, UniProt Q8K4Z4).
T1 construct: Guinea-pig trachea were cleaned of extraneous connective tissue and cut into spiral strips; from tissue; host or cells: isolated guinea-pig tracheal spiral strips
The test can be described thus: β-adrenoceptor antagonism in isolated tracheal strips (isoproterenol-induced relaxation). On the set-up: species or system guinea-pig. How it is done:
Guinea-pig trachea were cleaned of extraneous connective tissue and cut into spiral strips as described in Gen. […] This spiral strip was cut into two equal segments and both were suspended in organ baths filled with 20 ml of Kreb's solution. […] An initial basal tension of 2 g was applied to each tracheal strip and the tissue was allowed to gain tone spontaneously until a steady level was reached (60 min).
(§1) The pA2 values and slope values were calculated from individual Schild plots by regression analysis. The β1 /β2 -selectivity ratio was obtained from the antilogarithm of the difference between the mean pA2 values obtained from right atrium and trachea.
(§2) Mean cumulative concentration-response curves are shown for the positive chronotropic responses to (-) isoproterenol in spontaneously-beating guinea-pig right atria, positive inotropic responses to (-) isoproterenol in electrically driven guinea-pig left atria, and relaxant effects to (-) isoproterenol in guinea-pig spontaneous tone tracheal strips in the absence (.smallcircle.) or presence of 0.01 (.circle-solid.), 0.1, 1 (.tangle-soliddn.) or 10 (.diamond.) μM of vasomolol.

The test system of the next test is β1/β2-adrenoceptors. The test can be described thus: β1/β2-selectivity from mean pA2 values of right atria and trachea. Also noted: species or system guinea-pig. The method, then:
The β1 /β2 -selectivity ratio was obtained from the antilogarithm of the difference between the mean pA2 values obtained from the right atria and trachea as described in J. Pharm. […] The pA2 values and slope values were calculated from individual Schild plots by regression analysis. The β1 /β2 -selectivity ratio was obtained from the antilogarithm of the difference between the mean pA2 values obtained from right atrium and trachea.

Test [2] has as its target T2, β1-adrenoceptor (right atrium) (Cavia porcellus, UniProt H0W3H1).
T2 construct: Spontaneously-beating right atria were removed from the hearts and mounted in a 10 ml organ bath; from tissue; host or cells: isolated guinea-pig (Hartley) right and left atria
Nature of the test: β-adrenoceptor antagonism in isolated spontaneously-beating right atria (isoproterenol chronotropic response). Also noted: species or system guinea-pig. The method, then: Guinea-pigs (Hartley) of either sex weighing between 350 and 500 g were sacrificed by a blow on the head. Their hearts and trachea were quickly excised and excess tissue was removed. […] The atrial strip was prestretched to a baseline tension of 0.2 g. […] The atria were then allowed a 30-60 min washout period to estabilize, after which time various concentrations of the test compound were incubated with the atrium 30 min before the cumulative concentrations of the (-) isoproterenol ([…]) was added. All responses to (-) isoproterenol were calculated as a percentage of the maximum control response to (-) isoproterenol.
as §1, §2

The test system of a further test is β-adrenergic receptor. Nature of the test: β-blockade and duration of action: inhibition of (-)isoproterenol-induced tachycardia during and after infusion. Format: in vivo, pentobarbital-anesthetized rats. The method, then: Vasomolol (100 μg/kg/min) was infused consecutively into a femoral vein in pentobarbital-anesthetized rats. Each perfusion was maintained for 60 min. Before and during the infusion of vasomolol and esmolol, at 10-min intervals, bolus i.v. injections of (-) isoproterenol (0.5. μg/kg) were administered to assess the level of β-blockade. (-) lsoproterenol injections were also continued for 60 min. after termination of the highest dose of vasomolol and esmolol to assess the duration of β-blockade reported in J. Pharm. Exp. Ther. 237, 912, 1986 (by Quon, C. Y. et al.). The percentage of inhibition of the (-)isoproterenol-induced tachycardia parameter of β-blockade--was calculated during and after infusions of vasomolol.
isoproterenol (0.5 μg/kg)
vasomolol (0.5, 1.0, 3.0 mg/kg)

Where only a bound is given, the exact number is not on record here.

T1 sequence (Q8K4Z4 whole entry): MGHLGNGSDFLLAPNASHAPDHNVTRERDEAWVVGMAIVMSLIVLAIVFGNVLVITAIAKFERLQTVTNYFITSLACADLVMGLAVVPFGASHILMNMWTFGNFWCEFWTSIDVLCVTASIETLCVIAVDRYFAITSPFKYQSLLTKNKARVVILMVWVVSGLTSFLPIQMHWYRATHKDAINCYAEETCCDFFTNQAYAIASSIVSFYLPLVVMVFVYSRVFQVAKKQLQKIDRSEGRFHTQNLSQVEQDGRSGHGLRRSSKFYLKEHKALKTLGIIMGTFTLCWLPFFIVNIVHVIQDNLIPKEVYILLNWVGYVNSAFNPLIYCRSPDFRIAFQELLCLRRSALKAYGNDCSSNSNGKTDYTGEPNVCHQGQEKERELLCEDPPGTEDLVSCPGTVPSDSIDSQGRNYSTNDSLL
T2 sequence (H0W3H1 1-470): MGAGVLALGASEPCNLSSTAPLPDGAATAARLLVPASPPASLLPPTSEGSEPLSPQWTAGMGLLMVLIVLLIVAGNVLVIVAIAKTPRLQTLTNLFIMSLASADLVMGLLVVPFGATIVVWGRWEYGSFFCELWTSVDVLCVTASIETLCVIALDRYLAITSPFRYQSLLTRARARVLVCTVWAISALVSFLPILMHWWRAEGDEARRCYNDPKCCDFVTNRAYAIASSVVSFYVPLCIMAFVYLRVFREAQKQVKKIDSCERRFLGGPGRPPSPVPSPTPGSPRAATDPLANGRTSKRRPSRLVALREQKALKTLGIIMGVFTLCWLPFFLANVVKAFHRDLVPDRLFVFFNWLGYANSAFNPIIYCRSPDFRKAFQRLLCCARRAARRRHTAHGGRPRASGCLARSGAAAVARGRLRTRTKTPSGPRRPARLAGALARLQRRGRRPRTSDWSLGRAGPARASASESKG

On to `CCOC(=O)c1ccc(OCC(O)CNC(C)(C)C)c(OC)c1` (stereo not shown) [Vasomolol], for which, in test [1] (in words), the “relative β2-adrenoceptor blocking potency” value is given as “less potent than propranolol”. Further, the “pA2 value, β2, trachea” value in test [1] (mean ± SEM, six to eight experiments, 60 min) worked out at 5.81 ± 0.11. Also, the “antagonism of (-) isoproterenol-induced relaxation” value in test [1] (printed 5×10^8 -10^6 M, tracheal strips) is given as “competitively antagonized”. Also, the “Schild slope, trachea” value in test [1] (regression of Schild plot) was found to be 0.81 ± 0.06. Also, in the test on β1/β2-adrenoceptors, the “β1/β2 selectivity in words” value is “selective for β1-adrenoceptors”. In the test with β1/β2-adrenoceptors (antilogarithm of difference between mean pA2 of right atrium and trachea), the β1/β2-selectivity ratio turned out to be 39.8. Further, in the test on β1/β2-adrenoceptors (from mean pA2 values), the “potency on right atria versus trachea” value amounted to 39.8 times. Further, the “antagonism of isoproterenol-induced positive chronotropic actions” value in test [2] (5×10^-8 -10^-6 M, right atrial strips) is recorded as “caused a dose-dependent parallel shift to the right of the isoproterenol concentration-response curves”. For the same compound, the “pA2 value, β1, right atrium” value in test [2] (mean ± SEM, six to eight experiments, 30 min) was 7.41 ± 0.05. Further, the “Schild slope, right atrium” value in test [2] (regression of Schild plot) is reported as 0.90 ± 0.04. Besides, in the test with β-adrenergic receptor (after initiating each infusion rate, isoproterenol 0.5 μg/kg), the “onset of β-blockade to steady-state level” value is on record as not above 10 min. Also, the “time required for 50% recovery” value in the test on β-adrenergic receptor (after termination of infusion, mean±S.E.M.) stood at 9.5 ± 1.0 min. For the same compound, the “disappearance of β-blockade after termination of infusion” value in the test with β-adrenergic receptor (in words) was “disappeared rapidly after the termination of infusion”.

The record behind these values is patent publication US5939578A, “Vasomolol: an ultra short-acting and vasodilatory vanilloid type β - adrenoceptor antagonist” (Lin; Tong-Ho, priority 1996, dated 1999).
